The subject of the first data set is wild type DHB4 E. coli.
Assay: not given
Conditions: cited from earlier work.
Sequence of E. coli TrxR (P0A9P4 2-321): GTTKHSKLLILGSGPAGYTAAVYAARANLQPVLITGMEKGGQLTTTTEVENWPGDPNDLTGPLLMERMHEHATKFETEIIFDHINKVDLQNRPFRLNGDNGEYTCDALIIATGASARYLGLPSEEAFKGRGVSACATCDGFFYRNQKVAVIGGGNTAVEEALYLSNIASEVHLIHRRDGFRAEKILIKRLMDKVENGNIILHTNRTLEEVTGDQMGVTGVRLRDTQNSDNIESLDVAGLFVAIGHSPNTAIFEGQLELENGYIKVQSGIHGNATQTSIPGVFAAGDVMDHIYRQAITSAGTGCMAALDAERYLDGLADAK
Sequence of E. coli Trx (P0AA25 whole entry): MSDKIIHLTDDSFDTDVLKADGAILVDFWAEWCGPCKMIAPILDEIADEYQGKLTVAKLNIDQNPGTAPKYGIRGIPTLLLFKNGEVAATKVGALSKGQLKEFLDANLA
With `O=c1c2ccccc2[se]n1-c1ccc(Cl)cc1` [EbSe 7], the “MIC for wild type DHB4 E. coli” value is 34 µM.
Regarding `CCOC(=O)c1cccnc1[Se]Nc1ccc(Cl)cn1` [compound 2], the “MIC for wild type DHB4 E. coli” value is “No Inh”.
For `O=c1c2ccccc2[se]n1-c1ncccc1[N+](=O)[O-]` [EbSe 12], the “MIC for wild type DHB4 E. coli” value is “No Inh”.
Consider `O=c1c2ccccc2[se]n1-c1ccncc1` [EbSe 13], for which the “MIC for wild type DHB4 E. coli” value was 45 µM.
For `O=c1c2ccccc2[se]n1-c1ccccc1` [EbSe 6, 2-phenyl-1,2-benzisoselenazol-3(2H)-one], the “MIC for wild type DHB4 E. coli” value was 40 µM.
Turning to `O=c1c2ccccc2[se]n1-c1ccc(Cl)cn1` [EbSe 11], the “MIC for wild type DHB4 E. coli” value is listed as “No Inh”.
For the compound `O=c1c2ccccc2[se]n1CCn1[se]c2ccccc2c1=O` [EbSe 14], the “MIC for wild type DHB4 E. coli” value was 23 µM.
On to `O=C(O)c1ccccc1-n1[se]c2ccccc2c1=O` [EbSe 9], for which the “MIC for wild type DHB4 E. coli” value is 49 µM.
Consider `Cc1cc(Cl)ccc1-n1[se]c2ccccc2c1=O` [EbSe 8], for which the “MIC for wild type DHB4 E. coli” value was 47 µM.
For `O=c1c2ccccc2[se]n1CCCCCCn1[se]c2ccccc2c1=O` [EbSe 16], the “MIC for wild type DHB4 E. coli” value was 20 µM.

A further data set relates to gshA- DHB4 E. coli.
Assay: not given
Conditions: cited from earlier work.
Turning to `O=c1c2ccccc2[se]n1-c1ccc(Cl)cc1` [EbSe 7], the “MIC for gshA- DHB4 E. coli” value was 20 µM.
On to `CCOC(=O)c1cccnc1[Se]Nc1ccc(Cl)cn1` [compound 2], for which the “MIC for gshA- DHB4 E. coli” value is recorded as “No Inh”.
Regarding `O=c1c2ccccc2[se]n1-c1ncccc1[N+](=O)[O-]` [EbSe 12], the “MIC for gshA- DHB4 E. coli” value is “No Inh”.
As to `O=c1c2ccccc2[se]n1-c1ccncc1` [EbSe 13], the “MIC for gshA- DHB4 E. coli” value is 21 µM.
For `O=c1c2ccccc2[se]n1-c1ccccc1` [EbSe 6, 2-phenyl-1,2-benzisoselenazol-3(2H)-one], the “MIC for gshA- DHB4 E. coli” value is 26 µM.
With `O=c1c2ccccc2[se]n1-c1ccc(Cl)cn1` [EbSe 11], the “MIC for gshA- DHB4 E. coli” value is reported as “No Inh”.
`O=c1c2ccccc2[se]n1CCn1[se]c2ccccc2c1=O` [EbSe 14]: the “MIC for gshA- DHB4 E. coli” value is 23 µM.
`O=C(O)c1ccccc1-n1[se]c2ccccc2c1=O` [EbSe 9]: the “MIC for gshA- DHB4 E. coli” value is 24 µM.
In the case of `Cc1cc(Cl)ccc1-n1[se]c2ccccc2c1=O` [EbSe 8], the “MIC for gshA- DHB4 E. coli” value is 13 µM.
On to `O=c1c2ccccc2[se]n1CCCCCCn1[se]c2ccccc2c1=O` [EbSe 16], for which the “MIC for gshA- DHB4 E. coli” value is 20 µM.

A further data set addresses E. coli Trx (Escherichia coli, UniProt P0AA25). In words: Oxidation of reduced E. coli Trx-(SH)2, fluorescence spectroscopy. In kind it is biochemical.
Details: not given
Consider `O=C(Nc1ccccc1)c1ccccc1[Se][Se]c1ccccc1C(=O)Nc1ccccc1` [ebselen diselenide], for which the “second-order rate constant, reduction by reduced E. coli Trx” value is 1700 M⁻¹ s⁻¹.
On to `O=c1c2ccccc2[se]n1-c1ccccc1` [EbSe 6, 2-phenyl-1,2-benzisoselenazol-3(2H)-one], for which the “second-order rate constant, reduction by reduced E. coli Trx” value was 2e+07 M⁻¹ s⁻¹.

For the next data set, the system named is MDR Mycobacterium tuberculosis. Briefly: Sensitivity of Mycobacterium tuberculosis to ebselen, radiometric BACTEC 460 system. In kind it is cell-based. Conditions: medium with 5 g/l albumin; dependent upon albumin saturation.
As for `O=c1c2ccccc2[se]n1-c1ccccc1` [EbSe 6, 2-phenyl-1,2-benzisoselenazol-3(2H)-one], the “MIC, Mycobacterium tuberculosis” value is “lower than 20 mg/I”.

A further data set concerns the target E. coli TrxR (Escherichia coli, UniProt P0A9P4).
Assay: not given
Conditions: read-out: IC50 for E. coli TrxR; 100 nM TrxR, 2 μM Trx, 240 μM NADPH, 1 mM DTNB; cited from earlier work.
One may read the IC50 as the concentration needed to halve the response being measured. Take `O=c1c2ccccc2[se]n1-c1ccc(Cl)cn1` [EbSe 11]: the half-maximal inhibitory concentration (IC50) was over 40 µM.

The same data set, now with this note: read-out: Ki for E. coli TrxR; Dixon plot; 6 nM TrxR, Trx 1, 2 or 4 μM; cited from earlier work.
The Ki is a dissociation constant, usually derived from enzyme kinetics or from competition with a known ligand. Turning to `O=c1c2ccccc2[se]n1-c1ccc(Cl)cn1` [EbSe 11], the inhibitory constant (Ki) is 0.3 µM.

Another data set deals with Gor- DHB4 E. coli.
Assay: not given
Conditions: cited from earlier work.
Take `O=c1c2ccccc2[se]n1-c1ccc(Cl)cc1` [EbSe 7]: the “MIC for Gor- DHB4 E. coli” value was 23 µM.
As to `CCOC(=O)c1cccnc1[Se]Nc1ccc(Cl)cn1` [compound 2], the “MIC for Gor- DHB4 E. coli” value is “No Inh”.
For the compound `O=c1c2ccccc2[se]n1-c1ncccc1[N+](=O)[O-]` [EbSe 12], the “MIC for Gor- DHB4 E. coli” value is recorded as “No Inh”.
On to `O=c1c2ccccc2[se]n1-c1ccncc1` [EbSe 13], for which the “MIC for Gor- DHB4 E. coli” value was 24 µM.
As for `O=c1c2ccccc2[se]n1-c1ccccc1` [EbSe 6, 2-phenyl-1,2-benzisoselenazol-3(2H)-one], the “MIC for Gor- DHB4 E. coli” value was 15 µM.
For `O=c1c2ccccc2[se]n1-c1ccc(Cl)cn1` [EbSe 11], the “MIC for Gor- DHB4 E. coli” value is “No Inh”.
Turning to `O=c1c2ccccc2[se]n1CCn1[se]c2ccccc2c1=O` [EbSe 14], the “MIC for Gor- DHB4 E. coli” value is 19 µM.
As for `O=C(O)c1ccccc1-n1[se]c2ccccc2c1=O` [EbSe 9], the “MIC for Gor- DHB4 E. coli” value was 31 µM.
Regarding `Cc1cc(Cl)ccc1-n1[se]c2ccccc2c1=O` [EbSe 8], the “MIC for Gor- DHB4 E. coli” value is 24 µM.
`O=c1c2ccccc2[se]n1CCCCCCn1[se]c2ccccc2c1=O` [EbSe 16]: the “MIC for Gor- DHB4 E. coli” value was 35 µM.

In a further data set the test system is HEK 293T cells.
Assay: not given
Conditions: 24 h incubation, XTT; cited from earlier work. Background: Formazan colour is commonly taken as a measure of viable cells.
For `O=c1c2ccccc2[se]n1-c1ncccc1[N+](=O)[O-]` [EbSe 12], the IC50 was 80 µM.
Turning to `O=c1c2ccccc2[se]n1-c1ccc(Cl)cn1` [EbSe 11], the IC50 is over 160 µM.

System in a further data set: not given
Assay: not given
Conditions: 30 μM compound, 0.5 mM GSH, 0.5 mM H2O2, NADPH consumption; cited from earlier work.
Regarding `O=c1c2ccccc2[se]n1-c1ncccc1[N+](=O)[O-]` [EbSe 12], the “Relative GPx activity” value is on record as 0.93.
`O=c1c2ccccc2[se]n1-c1ccc(Cl)cn1` [EbSe 11]: the “Relative GPx activity” value is reported as 0.87.
With `O=c1c2ccccc2[se]n1CCn1[se]c2ccccc2c1=O` [EbSe 14], the “Relative GPx activity” value was “No activity”.

A further data set has as its system Staphylococcus aureus.
Assay: not given
Conditions: cited from earlier work.
For `O=c1c2ccccc2[se]n1-c1ccccc1` [EbSe 6, 2-phenyl-1,2-benzisoselenazol-3(2H)-one], the “difference in sensitivity, Staphyloccus aureus versus E. coli” value was 100 fold.

Staying with this data set, now noted: methicillin resistant Staphylococcus aureus; cited from earlier work.
On to `O=c1c2ccccc2[se]n1-c1ccccc1` [EbSe 6, 2-phenyl-1,2-benzisoselenazol-3(2H)-one], for which the “concentration inhibiting growth of methicillin resistant Staphylococcus aureus” value is reported as 0.20 μg per ml.

Still in this data set, the particulars now being: strain 209P; cited from earlier work.
Consider `O=c1c2ccccc2[se]n1-c1ccccc1` [EbSe 6, 2-phenyl-1,2-benzisoselenazol-3(2H)-one], for which the “concentration inhibiting growth of Staphylococcus aureus 209P” value was 0.20 µg/mL.

In the next data set the target is T1, recombinant rat TrxR (Rattus norvegicus, UniProt O89049).
T1 sequence (O89049 1-499): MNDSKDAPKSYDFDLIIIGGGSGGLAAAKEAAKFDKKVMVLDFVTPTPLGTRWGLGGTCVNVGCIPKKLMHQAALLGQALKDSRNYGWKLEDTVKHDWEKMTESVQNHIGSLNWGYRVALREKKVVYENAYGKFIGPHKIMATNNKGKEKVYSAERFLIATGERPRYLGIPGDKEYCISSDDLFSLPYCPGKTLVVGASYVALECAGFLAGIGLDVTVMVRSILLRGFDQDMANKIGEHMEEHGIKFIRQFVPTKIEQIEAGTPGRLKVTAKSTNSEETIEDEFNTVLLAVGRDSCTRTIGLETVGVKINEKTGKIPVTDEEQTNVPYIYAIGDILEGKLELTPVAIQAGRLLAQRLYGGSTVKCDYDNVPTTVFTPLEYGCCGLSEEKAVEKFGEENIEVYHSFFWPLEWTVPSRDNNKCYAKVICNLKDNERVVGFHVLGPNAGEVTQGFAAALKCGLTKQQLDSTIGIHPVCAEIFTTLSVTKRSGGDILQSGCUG
Assay: not given
Conditions: cited from earlier work.
Regarding `CC(C)(C)n1[se]c2ccccc2c1=O` [EbSe 4], the “inhibition of mammalian TrxR (in words)” value was “some activity to inhibit mammalian TrxR”.

These data come from US20190307726A1, “PHARMACEUTICAL FORMULATIONS” (Molecular Defenses Corporation, priority 2015, published 2019).
